Drawing on patent publication US20240174637A1, “DEGRADERS OF GRK2 AND USES THEREOF” (Sonata Therapeutics, Inc., priority 2021, published 2024), this text covers IC50 and inhibition for five molecules.

Experiment [1] deals with T1, GRK2 (Homo sapiens, UniProt P25098).
T1 sequence (P25098 1-689): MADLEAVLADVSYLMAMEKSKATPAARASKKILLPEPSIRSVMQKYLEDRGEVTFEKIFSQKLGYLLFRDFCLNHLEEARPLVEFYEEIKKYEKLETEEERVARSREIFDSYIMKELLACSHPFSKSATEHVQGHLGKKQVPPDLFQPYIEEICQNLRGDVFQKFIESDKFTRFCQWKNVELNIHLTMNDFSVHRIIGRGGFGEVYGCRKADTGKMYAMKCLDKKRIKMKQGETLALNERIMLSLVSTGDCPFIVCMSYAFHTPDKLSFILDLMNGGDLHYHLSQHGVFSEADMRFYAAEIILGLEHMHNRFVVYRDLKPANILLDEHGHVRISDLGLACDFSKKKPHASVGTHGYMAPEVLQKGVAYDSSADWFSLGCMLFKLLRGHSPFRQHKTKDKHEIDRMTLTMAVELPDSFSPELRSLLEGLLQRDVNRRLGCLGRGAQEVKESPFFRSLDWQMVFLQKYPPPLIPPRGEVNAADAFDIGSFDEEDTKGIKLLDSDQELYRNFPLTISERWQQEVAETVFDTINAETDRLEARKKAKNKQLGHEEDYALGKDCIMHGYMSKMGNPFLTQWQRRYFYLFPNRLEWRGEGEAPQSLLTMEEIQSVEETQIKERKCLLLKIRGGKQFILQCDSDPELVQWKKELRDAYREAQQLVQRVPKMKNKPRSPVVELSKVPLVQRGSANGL
The experiment in a line: ADPGlo GRK2 Inhibition Assay (Example 2). It counts as biochemical. The settings on record: ADP-Glo, 10 μM ATP; read-out: ADP Glo Enzymatic GRK2 Assay: IC50 (nM) (Example 2). The method, then: Assay: GRK2 (7.5 nM) was incubated with ATP (10 μM) and GRKtide (0.3 mg/mL) in 5 μL of assay buffer (see above) for 180 min at room temperature. HTS was performed using 1 μM compound. Compounds were dissolved in 100% DMSO, serially diluted tree-fold from 100 μM concentration to 46 nM and transferred (50 nL) into assay ready plate.
Materials: GRK2 was purchased from SignalChem (Cat #A14-10G, Lot #X645-3). Substrate GRKtide was from SignalChem (Cat #G46-58, Lot #R339-6). ADP-Glo Kinase Assay from Promega (Cat #V9102). Assay buffer consisted of 25 mM HEPES (pH7.5), 10 mM MgCl2, 0.01% Tween-20, 1 mM DDT. 384-well white plates were from Greiner […] (Item #784075).
HTS protocol: Take 384 well plate with 50 nL of compound in columns 3-22/DMSO solution 1-2,23-24. Add 2.5 μL assay buffer to columns 23 and 24 using Thermo Scientific Multidrop Combi Dispenser. Add 2.5 μL of 2× enzyme solution (15 nM in 1× assay buffer) using Thermo Scientific Multidrop Combi Reagent Dispenser to all columns except of 23 and 24. Incubate for 15 minutes. Fill plate with 2.5 μL of 2× substrate mix (20 μM ATP and 0.6 mg/mL GRKtide in 1× assay buffer) using Thermo Scientific Multidrop Combi Reagent Dispenser. Spin 15 seconds at 1000 rpm and incubate for 180 min at room temperature. Add 5 μL ADP-Glo reagent to all the wells. Spin 15 seconds at 1000 rpm and incubate for 40 min at room temperature. Add 10 μL Detection solution to all the wells. Incubate for 30 min at room temperature. Read plate in Luminescent mode on BMG PheraStar FSX (gain=3600).
Data Analysis: Data were analyzed in GraphPad Prism 8.0.2. Each HTS plate contains compounds in columns 3-22, controls (enzyme, no compound) in columns 1 and 2, and blanks (no enzyme) in columns 23 and 24. HTS percent inhibition was calculated for each compound from the signal in luminescence units and the mean of the plate controls and the mean of the plate blanks using the following equation: % Inhibition=100*(1−((signal−blank mean)/(control mean−blank mean))). At the final stage of data processing, we obtain dose-response curves, tables and SDF-files with the results of screening for each substance.

A further experiment relates to PAXF1657 EV. The experiment in a line: 7-day cellular proliferation assay (CellTiter-Glo), PAXF1657 EV. The conditions noted are these: 168 h, 7-day, read-out: 7-day proliferation assay: IC50 GeoMean (uM) [Cell Line: PAXF1657 EV]. The class given is cell-based. The procedure, abridged:
(§1)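 PAXF1657 pancreatic cancer cells (GRK2-overexpressing vs empty vector; CRISPR GRK2 knockout vs non-targeting control) were seeded at 500 cells/well in RPMI1640/10% FBS, then given a 10-point series, 30 μM-0.0002 μM in 0.3% DMSO. Medium and compound were refreshed after 3 days; CellTiter-Glo luminescence was read at day 7.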

The subject of a further experiment is PAXF1657 KO Clone #4. The experiment in a line: 7-day cellular proliferation assay (CellTiter-Glo), PAXF1657 KO Clone #4. It counts as cell-based. The settings on record: 168 h, 7-day, read-out: 7-day proliferation assay: IC50 GeoMean (uM) [Cell Line: PAXF1657 KO Clone #4]. The procedure, abridged: as §1
Experiment [2] addresses T1, GRK2. The experiment in a line: GRK2 Degradation Assay and Western Blot in PAXF1657 cells. It counts as cell-based. The settings on record: PAXF1657 EV, 24 hrs; for inhibition at 0.3 µM: read-out: % GRK2 degradation at 0.3 uM in PAXF1657 EV (24 hrs); for inhibition at 1 µM: read-out: % GRK2 degradation at 1 uM in PAXF1657 EV (24 hrs); for inhibition at 3 µM: read-out: % GRK2 degradation at 3 uM in PAXF1657 EV (24 hrs). Details: endogenous in cells; host or cells: PAXF1657. The procedure, abridged:
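PAXF1657 cells grown to 70% confluency, then treated with compounds at 0–10 μM for 6 to 24 h at 37 °C. Lysates in PBS with 1% NP40 run on SDS-PAGE. GRK2 protein detected by western blot with β-actin as loading reference, using ECL chemiluminescence.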

In experiment [3] the target is T1, GRK2. In words: Second ADPGlo GRK2 Inhibition Assay (Example 3). It counts as biochemical. The settings on record: ADP-Glo, 20 μM ATP; read-out: Second ADPGlo Enzymatic GRK2 Assay: IC50 (nM) (Example 3). The method, then: Assay: GRK2 (2 nM) was incubated with ATP (20 μM) and GRKtide (1.2 mg/mL) in 11 μL of assay buffer (see above) for 180 min at room temperature. Compounds were dissolved in 100% DMSO, serially diluted 3.16-fold from 100 μM with 10 concentration points and transferred as 100× into assay plate (final compounds concentration in the reaction plate from 1 μM).
Materials: GRK2 was purchased from SignalChem (Cat #A14-10G, Lot #X645-3). Substrate GRKtide was from SignalChem (Cat #G46-58, Lot #R339-6). ADP-Glo Kinase Assay from Promega (Cat #V9102). Assay buffer consisted of 20 mM HEPES (pH7.5), 20 mM MgCl2, 0.01% Tween-20, 0.05 mM DDT. 384-well white plates were from Corning (Cat #4513).
HTS protocol: Add 5.5 μL of 2× substrate-enzyme mix into all columns except of 1-2 and 24 of reaction plate. Spin 15 seconds at 200 g. Transfer 1 ul of compounds from the plate with serial dilutions (384 well plate with 22 uL of compound in columns 3-22/DMSO solution 1-2,23-24) to Dilution plate (384 well plate with 49 uL of buffer with 2×40 μM ATP). After mixing transfer 5.5 ul from Dilution plate to Reaction plate (to 5.5 μL of 2× substrate-enzyme mix). Spin 15 seconds at 200 g and incubate for 180 min at room temperature with sealing. Add 3 μL ADP-Glo reagent to all the wells. Spin 15 seconds at 200 g and incubate for 40 min at room temperature. Add 6 μL Detection solution to all the wells. Incubate for 30 min at room temperature. Read plate using ClarioStar Plus (BMG).
Data Analysis: Data were analyzed in GraphPad Prism 5.0.2. Each HTS plate contains compounds in columns 3-22, controls (enzyme, no compound) in column 23, and blanks (no enzyme) in columns 2. HTS percent inhibition was calculated for each compound from the signal in luminescence units and the mean of the plate controls and the mean of the plate blanks using the following equation: % Inhibition=100*(1-(signal-blank mean)/(control mean-blank mean)).

For `Cn1c(CNc2cccc(C(=O)NCc3cccc(OCCCCCCOCCOCCOCCOCC(=O)Nc4cccc5c4CN(C4CCC(=O)NC4=O)C5=O)c3)c2)nnc1-c1ccncn1` (stereo not shown) [Compound D71], at GRK2 [1], the IC50 was less than 100 nM.

Regarding `Cn1c(CNc2cccc(C(=O)NCc3cccc(OCCCCCCOCCOCC(=O)Nc4cccc5c4CN(C4CCC(=O)NC4=O)C5=O)c3)c2)nnc1-c1ccncn1` (stereo not shown) [Compound D72], the IC50 in the experiment with PAXF1657 EV fell in the range of 1 to 10 µM. The IC50 on GRK2 [1] is less than 100 nM. For the same molecule, the IC50 in the experiment on PAXF1657 KO Clone #4 is 1 to 10 µM. In addition, at GRK2 [2], the inhibition at 0.3 µM was found to be 36%, the inhibition at 1 µM was 59% and the inhibition at 3 µM was 64%.

Consider `Cc1ncsc1-c1ccc(CNC(=O)[C@@H]2C[C@@H](O)CN2C(=O)[C@@H](NC(=O)CCCCCCOc2cccc(CNC(=O)c3cccc(NCc4nnc(-c5ccncn5)n4C)c3)c2)C(C)(C)C)cc1` [Compound D96], for which the IC50 on GRK2 [3] is less than 100 nM. Besides, in the experiment on PAXF1657 EV, the IC50 fell in the range of 1 to 10 µM. The IC50 with PAXF1657 KO Clone #4 is more than 10 µM. In addition, at GRK2 [2], the inhibition at 0.3 µM was found to be 19%, the inhibition at 1 µM worked out at 31% and the inhibition at 3 µM was 6%.

Consider `Cc1ncsc1-c1ccc(CNC(=O)[C@@H]2C[C@@H](O)CN2C(=O)[C@@H](NC(=O)CCCOc2cccc(CNC(=O)c3cccc(NCc4nnc(-c5ccncn5)n4C)c3)c2)C(C)(C)C)cc1` [Compound D97], for which the values for the IC50 at GRK2 [3], in the experiment on PAXF1657 EV and in the experiment on PAXF1657 KO Clone #4 were less than 100 nM, more than 10 µM and 1 to 10 µM, respectively. Also, the inhibition at 1 µM on GRK2 [2] came out at 11%.

Take `Cc1ncsc1-c1ccc(CNC(=O)[C@@H]2C[C@@H](O)CN2C(=O)[C@@H](NC(=O)CCCCCOCCOCCOCCCCCCOc2cccc(CNC(=O)c3cccc(NCc4nnc(-c5ccncn5)n4C)c3)c2)C(C)(C)C)cc1` [Compound D99]: the IC50 on GRK2 [3] was less than 100 nM; in the experiment with PAXF1657 EV it was less than 1 µM; with PAXF1657 KO Clone #4, 1 to 10 µM. The inhibition at 1 µM at GRK2 [2] was determined as 44%. The inhibition at 3 µM at GRK2 [2] was determined as 13%.
